Measured values as given in ChEMBL document CHEMBL1154827, “Acetylcholinesterase inhibitory pyridine alkaloids of the leaves of Senna multijuga” (J Nat Prod, 2010).

What was measured:
[1] = target: Acetylcholinesterase (Electrophorus electricus) (UniProt O42275); test: Inhibition of electric eel AChE assessed as purple zones of inhibition after 20 mins by TLC bioautography
[2] = target: Acetylcholinesterase (Electrophorus electricus) (UniProt O42275); test: Inhibition of electric eel AChE at 350 […] by microplate assay

Chain of Acetylcholinesterase (Electrophorus electricus) (O42275 24-633 limits assumed): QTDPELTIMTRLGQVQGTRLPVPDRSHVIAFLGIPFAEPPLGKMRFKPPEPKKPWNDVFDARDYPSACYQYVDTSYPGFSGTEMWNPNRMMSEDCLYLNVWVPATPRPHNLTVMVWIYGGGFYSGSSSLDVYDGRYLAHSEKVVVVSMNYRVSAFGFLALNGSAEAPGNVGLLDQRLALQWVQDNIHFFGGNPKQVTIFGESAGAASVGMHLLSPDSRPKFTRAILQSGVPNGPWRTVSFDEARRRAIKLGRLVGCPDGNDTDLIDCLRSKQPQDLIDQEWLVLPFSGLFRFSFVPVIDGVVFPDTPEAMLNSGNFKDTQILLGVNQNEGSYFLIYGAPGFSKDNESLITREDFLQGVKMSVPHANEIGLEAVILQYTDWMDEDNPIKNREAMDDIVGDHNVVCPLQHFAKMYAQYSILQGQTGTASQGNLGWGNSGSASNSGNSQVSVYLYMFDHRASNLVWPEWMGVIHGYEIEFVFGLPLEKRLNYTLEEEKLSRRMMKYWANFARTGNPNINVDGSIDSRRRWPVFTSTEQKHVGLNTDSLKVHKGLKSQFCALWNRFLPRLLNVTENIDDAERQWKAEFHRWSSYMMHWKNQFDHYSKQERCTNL

Row | Structure (SMILES) | INH [1] [µg] | inhibition [2] [%]
1 | Cc1nc(CCCCCCC(=O)CCCCCO)ccc1O | 0.18 | 30
2 | CCCCCC(=O)CCCCCCc1ccc(O)c(C)n1 | 0.75 | 13
3 | CNC(=O)Oc1ccc2c(c1)[C@]1(C)CCN(C)[C@@H]1N2C | 0.05 | 87
4 | C[C@@H]1O[C@@H](OC[C@H]2O[C@@H](Oc3c(-c4ccc(O)c(O)c4)oc4cc(O)cc(O)c4c3=O)[C@H](O)[C@@H](O)[C@@H]2O)[C@H](O)[C@H](O)[C@H]1O | > 100 | –
